# From US20130225523A1, “GLYCODENDRIMERS OF POLYPROPYLETHERIMINE” (priority 2010, published 2013)
# System: pro-inflammatory cytokines such as IL-6, IL-1 beta, TNF-alpha and MIP-1 beta
# Test: Effect of unconjugated components on pro-inflammatory cytokines
# Assay type: cell-based
# Conditions: even at high doses
compound,measurement,value
N[C@H]1C(O)O[C@H](CO)[C@@H](O)[C@@H]1O (stereo partly shown) [glucosamine],"effect on pro-inflammatory cytokines such as IL-6, IL-1 beta, TNF-alpha and MIP-1 beta",no effect
